Patent US20100196325A1 (priority 2007, published 2010)
Entries after “also recorded” stand apart in the source; their conditions may differ. Where two headings read alike, the source gives them in different places.

Columns and labels:
[1] = tested on: PANC-1 human pancreatic carcinoma cells; design: species or system nude mice; conditions: mouse, in vivo
tumor = tested on: tumor; design: species or system patient; conditions: human, in vivo
[2] = tested on: recombinant vaccinia virus GLV-1h68; type: cell-based
[3] = tested on: A549 lung carcinoma cells; design: species or system nude mice; conditions: mouse, in vivo
[4] = human, in vivo; for Side effects from the virus: iv
[5] = tested on: modified vaccinia virus, such as GLV-1h68; design: species or system patient; conditions: human, in vivo
[6] = tested on: recombinant vaccinia virus GLV-1h68; type: cell-based; remark: listed apart in the source
[7] = tested on: recombinant vaccinia virus GLV-1h68; type: cell-based; remark: listed apart in the source
[8] = Pock formation (systemic toxicity) after i.v. GLV-1h68 in GI-101A tumor-bearing mice; conditions: 80 days after virus injection; GLV-1h68 virus-treated animals given four doses of irinotecan 80 mg/kg i.p.; n=8
[9] = tested on: GI-101A human breast carcinoma cells; design: species or system nude mice; conditions: mouse, in vivo

Structure (SMILES) | Effect on tumor growth (in words) [1] | Tumor growth (tumor) | Tumor growth (tumor; iv) | Concentration at which growth of GLV-1h68 was completely inhibited [2] | Effect on tumor growth (in words) [3] | Body weight and pock formation [4] | Patient's symptoms [4] | Virus-associated side effects [4] | Side effects from the virus [4] | Viral load in the bloodstream [5] | Viral load in the bloodstream: decrease [5] | Viral load in the bloodstream: increase [5] | Viral load in the bloodstream ([5]; iv) | Concentration at which growth of GLV-1h68 was completely inhibited [6] | Effect on GLV-1h68 growth in GI-101A cells (in words) [6] | Concentration at which growth of GLV-1h68 was completely inhibited [7] | Effect on GLV-1h68 growth in GI-101A cells (in words) [7] | Animals in which no pocks were observed on any part of the body [8] | Effect on tumor growth (in words) [9]
Nc1ccn(C2OC(CO)C(O)C2(F)F)c(=O)n1 (centres unmarked) [Gemcitabine, 4-amino-1-[3,3-difluoro-4-hydroxy-5-(hydroxymethyl)tetrahydrofuran-2-yl]-1H-pyrimidine-2-one] | decrease tumor growth in the mice at both 50 mg/kg and 100 mg/kg doses to some extent | tumor growth is arrested or decreases | tumor growth is arrested or decreases | ≥ 1.0 µM | did not cause any inhibition of tumor growth | body weight of the patient is improved and any pock formation dissipates | symptoms subside | Fewer virus-associated side effects | suffers fewer side effects from the virus | is maintained or increases before subsequently decreasing | decreases more quickly; also recorded: decreases more rapidly | increases to a lesser extent | decreases over the period of time | – | – | – | – | – | –
COc1cccc2c1C(=O)c1c(O)c3c(c(O)c1C2=O)C[C@@](O)(C(=O)CO)C[C@@H]3O[C@H]1C[C@H](N)[C@H](O)[C@H](C)O1 [Doxorubicin] | – | tumor growth is arrested or decreases | – | – | – | body weight of the patient is improved and any pock formation dissipates | symptoms subside | Fewer virus-associated side effects | suffers fewer side effects from the virus | is maintained or increases before subsequently decreasing | decreases more quickly; also recorded: decreases more rapidly | increased to a lesser extent | decreases over the period of time | ≥ 1 µM | started to inhibit | – | – | – | –
N.N.[Cl][Pt][Cl] [Cisplatin] | – | tumor growth is arrested or decreases | – | – | – | body weight of the patient is improved and any pock formation dissipates | symptoms subside | Fewer virus-associated side effects | suffers fewer side effects from the virus | is maintained or increases before subsequently decreasing | decreases more quickly; also recorded: decreases more rapidly | increased to a lesser extent | decreases over the period of time | – | – | ≥ 100 µM | started to inhibit; also recorded: significantly inhibited the virus growth | – | –
CCc1c2c(nc3ccc(OC(=O)N4CCC(N5CCCCC5)CC4)cc13)-c1cc3c(c(=O)n1C2)COC(=O)[C@]3(O)CC [Irinotecan] | – | tumor growth is arrested or decreases | tumor growth is arrested or decreases | – | – | body weight of the patient is improved and any pock formation dissipates | symptoms subside | Fewer virus-associated side effects | suffers fewer side effects from the virus | is maintained or increases before subsequently decreasing | decreases more quickly; also recorded: decreases more rapidly | increased to a lesser extent | decreases over the period of time | – | – | – | – | 7 out of 8 | increased tumor growth
